Source: publication PMC9000864, “Pentacyclic Triterpenoids from Sabia discolor Dunn and Their α-Glycosidase Inhibitory Activities” (Molecules, 2022)

Biological target: α-glucosidase
Experiment: α-glucosidase inhibition assay (PNPG method)
Format: biochemical, saccharomyces cerevisiae
Conditions: for IC50: absorbance at 405 nm, 37 °C, n = 3, read-out: α-glucosidase inhibitory activity IC50; for α-glycosidase inhibitory activity (in words): compared with positive control acarbose
Excerpt: Altogether, dimethyl sulfoxide (DMSO; Beijing Mr. Lai Treasure Company, Beijing, China); phosphate buffer solution (PBS; HyClone); centrifuge tubes, 96 cell culture plates, and other consumables (NEST Biotechnology Co. Ltd., Beijing, China); and α-glucosidase (Sigma Company, St. Louis, MO, USA) from saccharomyces cerevisiae were obtained for this study. […] The absorbance was read using a microplate reader (Varioskan LUX, Thermo, Waltham, MA, USA) at 405 nm. The results were obtained for at least three independent experiments. The inhibitory activity of α-glucosidase was determined by the PNPG method. […] Then, 20 μL of PNPG (2.5 mmol/L) was added, mixed by shock, and incubated in a 37 °C constant-temperature incubator for 15 min. Then, 80 μL of Na2CO3 […] solution was added to stop the reaction and the absorbance was measured by a microplate reader at 405 nm. […] Inhibition rate = [(OD negative − OD blank) − (OD sample − OD background)]/(OD negative − OD blank) × 100%.

IC50 [nM] | SMILES | α-glycosidase inhibitory activity (in words)
270 ± 49.9 | CC1(C)CC[C@]2(CO)CC[C@]3(C)C(=CCC4[C@@]5(C)C(=O)C[C@@H](O)C(C)(C)C5CC[C@]43C)C2C1 (stereo partly drawn) [Compound 1, 3α, 28-dihydroxy-12-oleanene-l-one] | more significant activity than the positive control
110 ± 22.2 | CC1(C)CC[C@]2(C)CC[C@]3(C)C(=CC=C4[C@]5(C)C(CC[C@]43C)C(C)(C)[C@@H](O)C[C@@H]5O)C2C1 (some centres unmarked) [Compound 3, juglangenin A] | 
560 ± 33.1 | CC1=CCC2(C)CCC3(C)C(CCC4C5(C)C(O)CC(O)C(C)(C)C5CCC43C)C2C1C (stereo not drawn) [Compound 7, 20-taraxastene-1β, 3β -diol] | 
230 ± 13.5 | CC1=CCC2(C)CCC3(C)C(CCC4C5(C)CCC(O)C(C)(C)C5C(O)CC43C)C2C1C (stereo not drawn) [Compound 8, 6β-pseudotaraxasterol] | more significant activity than the positive control
230 ± 30.7 | CC1CCC2(C)CCC3(C)C4CCC5C(C)(C)C(O)CCC5(C)C4(C)CCC3(O)C2C1C (stereo not drawn) [Compound 9, ursan-3β, 13β-diol] | more significant activity than the positive control
260 ± 38.3 | CC1=CC[C@]2(C)CC[C@]3(C)C(CCC4[C@@]5(C)CCC(=O)C(C)(C)C5CC[C@]43C)C2[C@H]1C (some centres unmarked) [Compound 13, ψ-taraxasterone] | 

SMILES | IC50 [nM] | α-glycosidase inhibitory activity (in words)
C=C(C)[C@@H]1CC[C@]2(CO)CC[C@]3(C)C(CCC4[C@@]5(C)CC[C@H](O)C(C)(C)C5CC[C@]43C)C12 (some centres unmarked) [Compound 15, birch ester alcohol] | 90 ± 4.5 | best activity
